Publication PMC9854762, “Antibiofilm and Anti-Quorum-Sensing Activities of Novel Pyrazole and Pyrazolo[1,5-a]pyrimidine Derivatives as Carbonic Anhydrase I and II Inhibitors: Design, Synthesis, Radiosterilization, and Molecular Docking Studies” (Antibiotics, 2023)
Converted amounts (≈) assume the structure as drawn. Read-outs that look alike come from different tables or passages of the source.

Assays:
A. baumannii DH-243 [1] = assay: Broth microdilution MIC/MBC; assay type: cell-based, Acinetobacter baumannii; settings: for MIC: Acinetobacter baumannii, DH243, 24 h, read-out: MIC (Mean ± SEM); for MBC/MIC: value in brackets
Description: (§1) The broth microdilution method was taken as a basis to detect the MICs of pyrazole compounds against tested clinical isolates, according to the Clinical Laboratory and Standards Institute guidelines. The broth cultures were used to prepare the bacterial inoculums, and the suspensions were adjusted to the standard 0.5 McFarland turbidity. Stock solutions of the synthesized pyrazoles were prepared in pure DMSO and further serially diluted with TS broth in the concentration range from 128 µg/mL to 0.0625 µg/mL. A well containing noninoculated TS broth, free of any antimicrobial agents, was also included to ensure the medium sterility, while Erythromycin and Amikacin served as positive controls. Bacterial growth was determined by adding 20 µL of 0.5% TTC (2,3,5-triphenyltetrazolium chloride) aqueous solution. […] All experiments were repeated three times. The bactericidal effect from each concentration of the pyrazole and pyrazolo[1,5-a]pyrimidine derivatives showing growth inhibition was further studied. For this study, a loopful of 5 µL was taken from each no-visible growth tube and streaked onto plates of TS agar.

E. coli DH-5987 [2] = assay: Agar well-diffusion assay; assay type: cell-based; settings: Escherichia coli, DH5987, 50 µL of 10 mM per well, read-out: Diameter of Inhibition Zones (AZOI)
Description: (§2) The synthesized compounds were initially screened for their in vitro antibacterial activity against the different Gram-positive and Gram-negative bacteria, tested using the agar well-diffusion assay. The turbidity of the bacterial suspensions was established to the 0.5 McFarland turbidity standard. The activity was performed on TS agar plates. The bacteria were spread on the surface of the agar plates, and 10 mm wells were screwed into the agar plates. The assay was performed under aseptic conditions. An aliquot of 50 µL of each tested compound (10 mM) was added to the wells, and the plates were incubated overnight at 37 °C. Both Erythromycin and Amikacin antibiotic disks were used as positive control, while DMSO solvent was used as a negative control in this study. The diameters of inhibition zones were measured and recorded in mm. A comparative study of the synthesized compounds was determined. The experiment was performed in triplicates.

A. baumannii DH-243 [3] = assay: Agar well-diffusion assay; assay type: cell-based; settings: Acinetobacter baumannii
Description: as §2

P. aeruginosa DH-5698 [4] = assay: Agar well-diffusion assay; assay type: cell-based, Pseudomonus aeruginosa; settings: Pseudomonas aeruginosa
Description: as §2

P. aeruginosa DH-5698 [5] = assay: Broth microdilution MIC/MBC; assay type: cell-based, Pseudomonus aeruginosa; settings: for MIC: Pseudomonas aeruginosa, DH5698, 24 h, read-out: MIC (Mean ± SEM); for MBC/MIC: value in brackets
Description: as §1

E. coli DH-5987 [6] = assay: Broth microdilution MIC/MBC; assay type: cell-based, Escherichia coli; settings: for MBC/MIC: value in brackets; for MIC: read-out: MIC (Mean ± SEM)
Description: as §1

E. faecalis DH-5478 [7] = assay: Agar well-diffusion assay; assay type: cell-based; settings: Enterococcus faecalis, DH5478; E. faecalis DH-5478; 50 µL of 10 mM per well; read-out: Diameter of Inhibition Zones (AZOI)
Description: as §2

S. pyogenes DH-3467 [8] = assay: Agar well-diffusion assay; assay type: cell-based; settings: Streptococcus pyogenes, DH3467; S. pyogenes DH-3467; 50 µL of 10 mM per well; read-out: Diameter of Inhibition Zones (AZOI)
Description: as §2

S. aureus DH-432 [9] = assay: Agar well-diffusion assay; assay type: cell-based; settings: Staphylococcus aureus, DH432; S. aureus DH-432; 50 µL of 10 mM per well; read-out: Diameter of Inhibition Zones (AZOI)
Description: as §2

S. aureus DH-432 [10] = assay: Broth microdilution MIC/MBC; assay type: cell-based, Staphylococcus aureus; settings: for MIC: Staphylococcus aureus, DH432, 24 h, read-out: MIC (Mean ± SEM); for MBC/MIC: value in brackets
Description: as §1

S. pyogenes DH-3467 [11] = assay: Broth microdilution MIC/MBC; assay type: cell-based, Streptococcus pyogenes; settings: for MIC: Streptococcus pyogenes, DH3467, 24 h, read-out: MIC (Mean ± SEM); for MBC/MIC: value in brackets
Description: as §1

E. faecalis DH-5478 [12] = assay: Broth microdilution MIC/MBC; assay type: cell-based, Enterococcus faecalis; settings: for MIC: Enterococcus faecalis, DH5478, 24 h, read-out: MIC (Mean ± SEM); for MBC/MIC: value in brackets
Description: as §1

[13] = Escherichia coli, DH5987, E. coli DH-5987, 24 h
[14] = DH243, A. baumannii DH-243, 50 µL of 10 mM per well, read-out: Diameter of Inhibition Zones (AZOI)
[15] = DH5698, P. aeruginosa DH-5698, 50 µL of 10 mM per well, read-out: Diameter of Inhibition Zones (AZOI)

Structure (SMILES)	MIC (A. baumannii DH-243 [1])	MBC/MIC (A. baumannii DH-243 [1])	zone of inhibition at 10000 µM (E. coli DH-5987 [2])	MIC (P. aeruginosa DH-5698 [5])	MBC/MIC (P. aeruginosa DH-5698 [5])	MBC/MIC (E. coli DH-5987 [6]; E. coli DH-5987)	MIC (E. coli DH-5987 [6]; [13])	zone of inhibition at 10000 µM (E. faecalis DH-5478 [7])	zone of inhibition at 10000 µM (S. pyogenes DH-3467 [8])	zone of inhibition at 10000 µM (A. baumannii DH-243 [3]; [14])	zone of inhibition at 10000 µM (S. aureus DH-432 [9])	zone of inhibition at 10000 µM (P. aeruginosa DH-5698 [4]; [15])	MIC (S. aureus DH-432 [10])	MBC/MIC (S. aureus DH-432 [10])	melting point	MIC (S. pyogenes DH-3467 [11])	MBC/MIC (S. pyogenes DH-3467 [11])	MIC (E. faecalis DH-5478 [12])	MBC/MIC (E. faecalis DH-5478 [12])	further results
NCC[C@H](O)C(=O)N[C@@H]1C[C@H](N)[C@@H](O[C@H]2O[C@H](CN)[C@@H](O)[C@H](O)[C@H]2O)[C@H](O)[C@H]1O[C@H]1O[C@H](CO)[C@@H](O)[C@H](N)[C@H]1O [AK, Amikacin, reference compound]	128 ± 0.2 mg/L (≈ 219 µM)	4	11 mm	128 ± 0.1 mg/L (≈ 219 µM)	4	4	32 mg/L (≈ 54.6 µM)	–	–	–	–	–	–	–	–	–	–	–	–	zone of inhibition at 10000 µM (A. baumannii DH-243 [3]; DH243, read-out: Diameter of Inhibition Zones (AZOI)): 13 mm; zone of inhibition at 10000 µM (P. aeruginosa DH-5698 [4]; DH5698, read-out: Diameter of Inhibition Zones (AZOI)): 14 mm; MIC (Mean ± SEM) (E. coli DH-5987 [6]; E. coli DH-5987, 24 h): 32 ± 0.2 mg/L (≈ 54.6 µM); MBC (E. coli DH-5987 [6]; Escherichia coli, DH5987, E. coli): 128 mg/L (≈ 219 µM)
CCOC(=O)c1ccc(N=Nc2c(N)nn(-c3ccccc3)c2N)cc1 [Compound 3b, Ethyl 4-((3,5-diamino-1-phenyl-1H-pyrazol-4-yl)diazenyl)benzoate]	1 ± 0.3 mg/L (≈ 2.85 µM)	0.5	26.9 mm	1 ± 0.2 mg/L (≈ 2.85 µM)	0.5	1	0.5 ± 0.2 mg/L (≈ 1.43 µM)	24.4 mm	24.7 mm	23.1 mm	25.2 mm	25.1 mm	0.5 ± 0.1 mg/L (≈ 1.43 µM)	1	144 to 146 °C	0.75 ± 0.4 mg/L (≈ 2.14 µM)	1	0.75 ± 0.2 mg/L (≈ 2.14 µM)	0.5	–
CCOC(=O)c1ccc(N=Nc2c(N)nn(C(N)=S)c2N)cc1 [Compound 3c, Ethyl 4-((3,5-diamino-1-carbamothioyl-1H-pyrazol-4-yl)diazenyl)benzoate]	2 ± 0.2 mg/L (≈ 6 µM)	1	24.7 mm	1 ± 0.3 mg/L (≈ 3 µM)	1	0.5	0.75 ± 0.5 mg/L (≈ 2.25 µM)	21.3 mm	22.6 mm	22.5 mm	23.8 mm	23.2 mm	0.75 ± 0.2 mg/L (≈ 2.25 µM)	1	280 to 282 °C	0.75 ± 0.2 mg/L (≈ 2.25 µM)	0.5	1 ± 0.3 mg/L (≈ 3 µM)	1	–
CCOC(=O)c1ccc(N=Nc2c(N)nn(C(O)=CC#N)c2N)cc1 [Compound 4, Ethyl 4-((3,5-diamino-1-(2-cyano-1-hydroxyvinyl)-1H-pyrazol-4-yl)diazenyl)benzoate]	2 ± 0.4 mg/L (≈ 5.86 µM)	0.5	22.4 mm	1.5 ± 0.2 mg/L (≈ 4.39 µM)	1	1	0.75 ± 0.3 mg/L (≈ 2.2 µM)	22.1 mm	23.4 mm	21.3 mm	24.7 mm	20.5 mm	1 ± 0.4 mg/L (≈ 2.93 µM)	0.5	290 to 292 °C	1.5 ± 0.3 mg/L (≈ 4.39 µM)	0.5	2 ± 0.3 mg/L (≈ 5.86 µM)	0.5	–
CCOC(=O)c1ccc(N=Nc2c(N=Cc3ccc(OC)cc3)n[nH]c2N)cc1 [Compound 5b, Ethyl-4-((5-amino-3-((4-methoxybenzylidene)amino)-1H-pyrazol-4-yl)diazenyl)benzoate]	2 ± 0.1 mg/L (≈ 5.1 µM)	0.5	25.7 mm	2 ± 0.3 mg/L (≈ 5.1 µM)	1	0.5	1 ± 0.2 mg/L (≈ 2.55 µM)	25.4 mm	24.1 mm	23.4 mm	26.2 mm	24.7 mm	1 ± 0.3 mg/L (≈ 2.55 µM)	1	210 to 212 °C	1 ± 0.2 mg/L (≈ 2.55 µM)	1	1.5 ± 0.3 mg/L (≈ 3.82 µM)	1	–
CCOC(=O)c1ccc(N=Nc2c(N)nn3c2N=C(C)CC3=O)cc1 [Compound 7, ethyl 4-((2-amino-5-methyl-7-oxo-6,7-dihydropyrazolo[1,5-a]pyrimidin-3-yl)diazenyl)benzoate]	2 ± 0.3 mg/L (≈ 5.88 µM)	1	25.8 mm	2 ± 0.3 mg/L (≈ 5.88 µM)	0.5	0.5	1.5 ± 0.2 mg/L (≈ 4.41 µM)	23 mm	22.8 mm	24.5 mm	25.3 mm	24 mm	1 ± 0.3 mg/L (≈ 2.94 µM)	1	296 to 298 °C	1.5 ± 0.2 mg/L (≈ 4.41 µM)	1	2 ± 0.4 mg/L (≈ 5.88 µM)	1	–
CCOC(=O)c1ccc(N=Nc2c(N)nn3c(-c4ccc(Cl)cc4)cc(-c4ccccc4)nc23)cc1 [Compound 8c, Ethyl-4-((2-amino-7-(4-chlorophenyl)-5-phenylpyrazolo[1,5-a]pyrimidin-3-yl)diazenyl)benzoate]	8 ± 0.4 mg/L (≈ 16.1 µM)	2	17.8 mm	8 ± 0.3 mg/L (≈ 16.1 µM)	2	2	4 ± 0.1 mg/L (≈ 8.05 µM)	15.1 mm	15.4 mm	15.2 mm	16.1 mm	16.3 mm	4 ± 0.1 mg/L (≈ 8.05 µM)	1	–	4 ± 0.2 mg/L (≈ 8.05 µM)	2	8 ± 0.2 mg/L (≈ 16.1 µM)	2	–
